Assay results from US8790712B2, “Constitutional function-improving agents” (Cosmo Oil Co., Ltd., priority 2004, dated 2014).

What was measured:
[1] = tested on: Mice (35 to 45 weeks old, BALB/cAJc1); test: Thymus weight of aged mice after 7 days oral ALA hydrochloride (Example 1); assay type: in vivo, mouse; details: 10 mg/kg ALA hydrochloride orally once a day for 7 days, average of 5
Description: Mice (35 to 45 weeks old, BALB/cAJc1) preliminary raised for 1 week were injected with 10 mg of 5-aminolevulinic acid (hereinafter referred to as “ALA”) hydrochloride per kg mouse body weight once a day for 7 days continuously. ALA hydrochloride was adjusted to a concentration of […] with distilled water and orally administered to the mice. After the test, each mouse was sacrificed and the weight of its thymus was measured. The test was carried out using 5 mice per 1 plot, and their values were shown by average value.

[2] = tested on: ddY-N mouse; test: Body weight gain of young mice over 28 days of administration (Example 7); assay type: in vivo
Description: A total of 120 animals (60 animals for each of male and female) of about 4 weeks old of ddY-N mouse produced by Nippon Ikagaku Dobutsu Shizai Kenkyusho Co., Ltd. was purchased and subjected to 1 week of medical inspection to confirm that their healthy state is normal, and then used in the test. The test plots were set to a total of 4 plots of a control plot in which distilled water for injection is administered into the stomach using a stomach tube at a ratio of 10 ml per 1 kg body weight of the mouse to be tested for 28 continuous days, and 3 test plots in which ALA hydrochloride is administered in the same manner at respective ratios of 5 mg, 10 mg and 25 mg per 1 kg body weight of the mouse to be tested. The mice to be tested were divided into 12 groups, 1 group including 5 males or females, in such a manner that average body weight of each group became almost uniform, and 3 groups of males or females were allotted to each plot and raised for 28 days. The mice to be tested were raised by each group using a series of five stainless steel cages arranged in a raising room set to a room temperature of 23.0±2.0° C. and an irradiation time of 12 hours/day. Body weight gain was calculated by measuring individual body weight at intervals of 1 week from the start of the test.

[3] = tested on: broiler primary chicks (Chunky); test: Body weight of broiler chicks fed ALA hydrochloride for 7 weeks (Example 9); assay type: in vivo, chick
From the text: A total of 300 chicks, 150 chicks for females and males respectively, of broiler primary chicks (Chunky) were purchased. After the purchase, chicks having abnormality (weakness or dwarf) were excluded, and the rest were equipped with wing belts for individual identification and their body weights were individually measured. […] Using 15 female or male chicks (30 chicks in total) as 1 group, they were put into a Chick Gird arranged in a closed type barn, and warmed by arranging an infrared ray lamp for animal use. The Chick Gird was expanded along with the growth of chicks. The feed and drinking water were constantly provided. The test groups were set to a total of 3 groups containing a control group in which a control feed (a standard testing feed SDB No. 1 was used from the neonatal to 3 weeks old, or a standard testing feed SDB No. 2 from 3 weeks old to 7 weeks old, (both manufactured by Nippon Formula Feed Mfg Co., Ltd., Table 9) without adding ALA hydrochloride is provided, and 2 test groups of ALA-10 ppm treated group and ALA-50 ppm treated group in which 10 ppm or 50 ppm of ALA hydrochloride is added to the feed and provided, and 3 repetition plots were arranged for each group. The number of chicks to be tested in each test group was as shown in Table 10. The test period was set to 7 weeks (7 weeks old) from the neonatal (start of the added feed provision), and total body weight of females or males was measured for each repetition plot at the time of the neonatal and at intervals of 1 week thereafter. In addition, about 2 ml of blood was collected from a brachial vein (basilic vein) of each of 18 chicks (3 female or male chicks/repetition) of each group at 3 weeks old and 7 weeks old, and about 1.5 ml thereof was subjected to a coagulation preventing treatment using heparin-lithium salt and then the blood plasma was separated to inspect the items of LDH, GOT (AST), γ-GTP, ALP, total protein, albumin, globulin, total cholesterol, triglyceride, glucose, uric acid, total bilirubin, uric acid, creatinine, calcium and inorganic phosphorus.

[4] = tested on: thymus cells; test: Thymus weight and number of thymus cells of aged mice (Example 2); assay type: in vivo, mouse; details: 10 mg/kg orally once a day for 7 days; for The number of cells: thymus
Description: Mice (35 to 45 weeks old, BALB/cAJc1) preliminary raised for 1 week were injected with 10 mg of ALA hydrochloride per 1 kg mouse body weight once a day for 7 days continuously. ALA hydrochloride was adjusted to a concentration of […] with distilled water and orally administered to the mice. After the test, each mouse was sacrificed and the weight of its thymus and the number of cells were measured. In addition, a subset test of lymphocytes was carried out using the obtained cells. The test was carried out using 5 mice per 1 plot, and their values were shown by average value. […] Also, since the cell of CD4-CD8+ was increased in the ALA-treated plot based on the subset test, it was confirmed that the cytotoxic T cell increases after its future differentiation, so that its immunological function improving ability was shown (Table 3). In addition, photographs of the thymus of untreated plot (un-administered group) and the thymus of ALA-treated plot (ALA-treated group) are shown in FIG. 1.

[5] = tested on: Mice (35 to 45 weeks old, BALB/cAJc1); test: Rotary exercise quantity measuring device, rotations within 16 hours (Example 6); assay type: in vivo, mouse
Description: Mice (35 to 45 weeks old, BALB/cAJc1) preliminary raised for 1 week were injected with 10 mg of ALA hydrochloride per 1 kg mouse body weight once a day for 7 days continuously. ALA hydrochloride was adjusted to a concentration of […] with distilled water and orally administered to the mice. The mouse was put into a rotary exercise quantity measuring device (rotating basket: 200 mm in diameter×50 mm in width, raising basket: W 90 mm×D 220 mm×H 90 mm, manufactured by Shinano Seisakusho) and the number of rotation within 16 hours was measured before and after the test. The test was carried out using 1 mouse per 1 rotary exercise quantity measuring device, and carried out on female mice using untreated 5 animals and ALA-treated 5 animals as 1 plot, and the values were shown by the average value. It was confirmed that the rotation quantity was large and the exercise capacity was improved in the plot treated with ALA.

[6] = ALA-treated groups, 10 ppm or 50 ppm in feed, 7 weeks
[7] = within 16 hours, after 7 days of 10 mg/kg oral dosing
[8] = within 16 hours, before the 7 days of 10 mg/kg oral dosing

NCC(=O)CCC(=O)O [ALA, 5-aminolevulinic acid]
Thymus ([1]; female mice): 0.038 g
Thymus ([1]; male mice): 0.035 g
Growth (growth curves, body weight gain) ([2]; 10 mg/kg into the stomach for 28 days, compared with control, 5 mg/kg and 25 mg/kg plots, averages of males and females): superior growth than other 3 plots
Health state ([2]; ALA-treated groups, 5, 10 and 25 mg/kg for 28 days): abnormal health state was not fund
Growth (g), body weight ([3]; 10 ppm in feed, 1 week): 166.3 g
Growth (g), body weight ([3]; 10 ppm in feed, 2 week): 442.0 g
Growth (g), body weight ([3]; 10 ppm in feed, 3 week): 817.2 g
Growth (g), body weight ([3]; 10 ppm in feed, 4 week): 1402.7 g
Growth (g), body weight ([3]; 10 ppm in feed, 5 week): 2063.9 g
Growth (g), body weight ([3]; 10 ppm in feed, 6 week): 2736.4 g
Growth (g), body weight ([3]; 10 ppm in feed, 7 week): 3420.9 g
Growth (g), body weight ([3]; 10 ppm in feed, neonatal): 37.8 g
Growth (g), body weight ([3]; 50 ppm in feed, 1 week): 169.1 g
Growth (g), body weight ([3]; 50 ppm in feed, 2 week): 436.8 g
Growth (g), body weight ([3]; 50 ppm in feed, 3 week): 807.7 g
Growth (g), body weight ([3]; 50 ppm in feed, 4 week): 1400.8 g
Growth (g), body weight ([3]; 50 ppm in feed, 5 week): 2036.7 g
Growth (g), body weight ([3]; 50 ppm in feed, 6 week): 2731.5 g
Growth (g), body weight ([3]; 50 ppm in feed, 7 week): 3403.3 g
Growth (g), body weight ([3]; 50 ppm in feed, neonatal): 37.7 g
General conditions during the test period [3, 6]: no abnormality was found in the general conditions
Raising ratio and pathologic autopsy findings [3, 6]: an abnormality considered to be due to its addition was not found
Thymus ([4]; female mice): 0.044 g
Thymus ([4]; male mice): 0.034 g
The number of cells ([4]; female mice): 49.9 × 10^6
The number of cells ([4]; male mice): 22.0 × 10^6
Increasing ratio before and after the test (%) ([5]; rotary exercise, 10 mg/kg orally once a day for 7 days): 125%
Distance (m), after the test [5, 7]: 8889 m
Number of rotation, after the test [5, 7]: 14155
Distance (m), before the test [5, 8]: 7095 m
Number of rotation, before the test [5, 8]: 11297
